22 compounds from ChEMBL document CHEMBL5291721, “A preclinical secondary pharmacology resource illuminates target-adverse drug reaction associations of marketed drugs” (Nat Commun, 2023) can be followed below.

Experiment [1] concerns the target T1, Muscarinic acetylcholine receptor M1 (Homo sapiens, UniProt P11229).
T1 sequence (P11229 whole entry): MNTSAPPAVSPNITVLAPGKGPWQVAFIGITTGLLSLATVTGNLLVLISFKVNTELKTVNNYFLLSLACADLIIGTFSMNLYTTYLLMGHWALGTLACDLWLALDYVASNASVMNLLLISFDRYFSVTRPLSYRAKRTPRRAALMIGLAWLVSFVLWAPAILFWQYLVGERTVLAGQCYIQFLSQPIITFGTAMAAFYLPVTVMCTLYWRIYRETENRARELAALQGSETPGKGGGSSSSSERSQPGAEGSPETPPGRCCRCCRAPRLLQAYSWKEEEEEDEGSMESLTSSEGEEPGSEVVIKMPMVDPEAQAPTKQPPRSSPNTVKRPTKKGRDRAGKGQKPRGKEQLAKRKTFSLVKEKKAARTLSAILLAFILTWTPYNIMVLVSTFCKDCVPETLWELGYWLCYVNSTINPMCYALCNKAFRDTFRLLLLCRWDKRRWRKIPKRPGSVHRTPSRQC

Experiment [2] has as its target T2, Oxysterols receptor LXR-beta (Homo sapiens, UniProt P55055).
T2 sequence (P55055 whole entry): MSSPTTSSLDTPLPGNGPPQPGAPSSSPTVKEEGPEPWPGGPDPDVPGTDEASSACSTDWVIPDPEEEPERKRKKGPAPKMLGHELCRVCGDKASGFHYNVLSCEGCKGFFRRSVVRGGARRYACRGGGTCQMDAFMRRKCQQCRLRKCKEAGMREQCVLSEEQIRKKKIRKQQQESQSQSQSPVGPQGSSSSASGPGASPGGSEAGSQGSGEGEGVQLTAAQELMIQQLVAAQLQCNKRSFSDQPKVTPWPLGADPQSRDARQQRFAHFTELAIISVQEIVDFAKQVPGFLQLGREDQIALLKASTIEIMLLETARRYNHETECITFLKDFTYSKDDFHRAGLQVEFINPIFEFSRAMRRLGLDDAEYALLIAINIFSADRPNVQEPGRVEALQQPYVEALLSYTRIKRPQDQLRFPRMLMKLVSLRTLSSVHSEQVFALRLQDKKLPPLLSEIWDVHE
It is filed as functional.

For experiment [3], the target named is Beta-1 adrenergic receptor (Homo sapiens, UniProt P08588). It counts as functional, cell-based.
Chain of Beta-1 adrenergic receptor (P08588 whole entry): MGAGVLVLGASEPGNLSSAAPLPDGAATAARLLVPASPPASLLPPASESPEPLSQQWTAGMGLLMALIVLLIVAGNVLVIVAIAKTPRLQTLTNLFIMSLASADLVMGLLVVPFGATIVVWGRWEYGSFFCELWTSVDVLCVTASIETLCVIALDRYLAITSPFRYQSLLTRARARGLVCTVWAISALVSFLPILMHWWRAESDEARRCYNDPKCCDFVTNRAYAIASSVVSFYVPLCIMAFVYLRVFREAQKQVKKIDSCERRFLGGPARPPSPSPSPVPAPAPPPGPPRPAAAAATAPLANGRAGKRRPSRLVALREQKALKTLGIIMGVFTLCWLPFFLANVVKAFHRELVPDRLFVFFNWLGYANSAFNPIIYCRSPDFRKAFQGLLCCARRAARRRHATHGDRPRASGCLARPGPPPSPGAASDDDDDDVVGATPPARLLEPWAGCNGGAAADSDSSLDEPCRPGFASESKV
The target in experiment [4] is T3, Nuclear receptor subfamily 1 group I member 3 (Homo sapiens, UniProt Q14994).
T3 sequence (Q14994 whole entry): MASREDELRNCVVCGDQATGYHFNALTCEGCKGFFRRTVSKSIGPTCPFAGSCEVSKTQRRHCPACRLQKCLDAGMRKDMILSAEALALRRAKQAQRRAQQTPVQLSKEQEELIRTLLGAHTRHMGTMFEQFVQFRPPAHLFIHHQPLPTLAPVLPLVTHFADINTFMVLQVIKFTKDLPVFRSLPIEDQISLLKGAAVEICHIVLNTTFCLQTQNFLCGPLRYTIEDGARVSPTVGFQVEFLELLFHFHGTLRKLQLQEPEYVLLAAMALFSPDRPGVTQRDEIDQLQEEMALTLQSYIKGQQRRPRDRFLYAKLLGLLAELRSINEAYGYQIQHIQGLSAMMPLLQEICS
It is filed as functional.

The target of experiment [5] is T2, Oxysterols receptor LXR-beta. It counts as functional. The source holds these as a separate data set.
Experiment [6] concerns the target Gamma-aminobutyric acid type B receptor subunit 1 (Homo sapiens, UniProt Q9UBS5).
Experiment [7] deals with 5-hydroxytryptamine receptor 5A (Homo sapiens, UniProt P47898).
Chain of 5-hydroxytryptamine receptor 5A (P47898 whole entry): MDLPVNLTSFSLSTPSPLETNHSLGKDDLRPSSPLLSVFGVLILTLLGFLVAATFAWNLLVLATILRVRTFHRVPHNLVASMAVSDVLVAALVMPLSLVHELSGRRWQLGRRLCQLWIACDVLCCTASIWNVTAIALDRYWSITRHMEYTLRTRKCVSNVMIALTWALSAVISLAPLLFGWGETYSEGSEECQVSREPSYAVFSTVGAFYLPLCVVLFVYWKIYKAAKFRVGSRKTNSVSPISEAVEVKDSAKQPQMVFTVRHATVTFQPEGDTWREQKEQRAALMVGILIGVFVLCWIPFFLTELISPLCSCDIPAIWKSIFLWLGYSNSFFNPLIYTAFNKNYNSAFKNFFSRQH
In experiment [8] the target is Rod cGMP-specific 3',5'-cyclic phosphodiesterase subunit alpha (Homo sapiens, UniProt P16499). It counts as functional.
Chain of Rod cGMP-specific 3',5'-cyclic phosphodiesterase subunit alpha (P16499 whole entry): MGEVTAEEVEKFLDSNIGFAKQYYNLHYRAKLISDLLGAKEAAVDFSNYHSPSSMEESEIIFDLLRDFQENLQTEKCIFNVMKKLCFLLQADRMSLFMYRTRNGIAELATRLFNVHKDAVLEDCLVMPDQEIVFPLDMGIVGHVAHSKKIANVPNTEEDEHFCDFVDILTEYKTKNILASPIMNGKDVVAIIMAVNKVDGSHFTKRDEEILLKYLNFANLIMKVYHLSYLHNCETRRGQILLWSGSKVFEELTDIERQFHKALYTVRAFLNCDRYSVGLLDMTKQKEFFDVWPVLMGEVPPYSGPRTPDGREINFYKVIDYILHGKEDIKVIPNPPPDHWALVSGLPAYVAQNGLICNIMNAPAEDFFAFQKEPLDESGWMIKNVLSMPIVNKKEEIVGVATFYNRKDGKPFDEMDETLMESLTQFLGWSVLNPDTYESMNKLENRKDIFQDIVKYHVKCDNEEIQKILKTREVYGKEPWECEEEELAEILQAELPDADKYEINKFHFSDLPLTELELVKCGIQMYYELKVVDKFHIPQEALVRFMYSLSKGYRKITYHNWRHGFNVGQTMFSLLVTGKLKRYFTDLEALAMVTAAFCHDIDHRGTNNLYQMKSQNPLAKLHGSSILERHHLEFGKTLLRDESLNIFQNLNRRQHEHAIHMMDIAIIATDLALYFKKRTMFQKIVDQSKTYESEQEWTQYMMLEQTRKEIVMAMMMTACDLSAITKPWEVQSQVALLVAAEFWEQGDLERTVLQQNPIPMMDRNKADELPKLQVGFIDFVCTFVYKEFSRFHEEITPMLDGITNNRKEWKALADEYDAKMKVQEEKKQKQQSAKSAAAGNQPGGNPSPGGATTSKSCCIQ
Experiment [9] has as its target T4, Androgen receptor (Rattus norvegicus, UniProt P15207).
T4 sequence (P15207 whole entry): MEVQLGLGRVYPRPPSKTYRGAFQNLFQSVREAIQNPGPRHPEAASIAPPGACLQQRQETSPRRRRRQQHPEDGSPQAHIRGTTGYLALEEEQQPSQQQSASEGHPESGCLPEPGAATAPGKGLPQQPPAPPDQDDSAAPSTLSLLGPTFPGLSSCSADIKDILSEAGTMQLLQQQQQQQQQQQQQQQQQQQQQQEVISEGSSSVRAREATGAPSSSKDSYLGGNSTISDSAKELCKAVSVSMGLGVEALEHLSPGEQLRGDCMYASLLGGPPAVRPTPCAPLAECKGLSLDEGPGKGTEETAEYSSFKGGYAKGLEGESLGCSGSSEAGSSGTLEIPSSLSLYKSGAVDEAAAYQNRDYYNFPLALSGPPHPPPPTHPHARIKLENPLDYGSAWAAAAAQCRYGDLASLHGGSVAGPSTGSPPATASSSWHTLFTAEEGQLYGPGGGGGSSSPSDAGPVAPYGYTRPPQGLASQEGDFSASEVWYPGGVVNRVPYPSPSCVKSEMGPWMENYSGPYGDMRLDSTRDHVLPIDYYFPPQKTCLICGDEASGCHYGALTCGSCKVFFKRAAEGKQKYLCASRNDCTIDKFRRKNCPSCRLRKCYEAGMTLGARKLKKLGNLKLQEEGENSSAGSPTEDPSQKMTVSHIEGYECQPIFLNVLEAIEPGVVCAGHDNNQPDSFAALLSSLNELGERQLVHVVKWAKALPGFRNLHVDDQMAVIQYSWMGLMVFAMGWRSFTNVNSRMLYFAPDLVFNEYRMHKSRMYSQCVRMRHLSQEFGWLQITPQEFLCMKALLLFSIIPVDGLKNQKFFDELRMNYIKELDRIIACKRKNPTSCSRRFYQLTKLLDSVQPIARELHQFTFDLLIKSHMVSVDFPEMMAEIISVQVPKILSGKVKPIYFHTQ

Experiment [10] has as its target T5, Substance-K receptor (Homo sapiens, UniProt P21452).
T5 sequence (P21452 whole entry): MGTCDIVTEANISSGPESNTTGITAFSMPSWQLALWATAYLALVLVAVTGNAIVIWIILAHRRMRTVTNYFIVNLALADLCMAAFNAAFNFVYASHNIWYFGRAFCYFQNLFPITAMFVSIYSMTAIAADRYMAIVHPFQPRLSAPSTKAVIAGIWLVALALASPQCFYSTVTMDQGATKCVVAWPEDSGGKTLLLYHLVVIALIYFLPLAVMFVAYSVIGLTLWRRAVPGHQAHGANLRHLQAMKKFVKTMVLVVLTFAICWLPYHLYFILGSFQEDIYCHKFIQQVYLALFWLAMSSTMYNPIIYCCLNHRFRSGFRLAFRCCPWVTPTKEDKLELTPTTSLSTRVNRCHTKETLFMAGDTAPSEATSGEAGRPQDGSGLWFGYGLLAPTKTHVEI

Experiment [11] concerns the target 5-hydroxytryptamine receptor 2B (Homo sapiens, UniProt P41595).
Further: assay procedure not described here.

Chain of 5-hydroxytryptamine receptor 2B (P41595 whole entry): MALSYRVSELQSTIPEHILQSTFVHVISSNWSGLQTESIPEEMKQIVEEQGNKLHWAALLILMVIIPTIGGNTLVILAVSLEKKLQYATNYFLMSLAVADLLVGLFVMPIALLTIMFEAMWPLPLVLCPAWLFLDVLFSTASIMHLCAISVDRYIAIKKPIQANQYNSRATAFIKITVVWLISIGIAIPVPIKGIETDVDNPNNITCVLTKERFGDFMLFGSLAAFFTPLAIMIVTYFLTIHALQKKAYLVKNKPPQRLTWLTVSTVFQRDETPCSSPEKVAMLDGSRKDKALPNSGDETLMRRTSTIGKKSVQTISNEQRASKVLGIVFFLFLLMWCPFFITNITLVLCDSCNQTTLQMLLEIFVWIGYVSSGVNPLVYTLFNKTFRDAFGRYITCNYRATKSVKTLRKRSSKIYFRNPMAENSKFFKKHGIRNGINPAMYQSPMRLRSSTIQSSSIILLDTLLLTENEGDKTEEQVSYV
Chain of Gamma-aminobutyric acid type B receptor subunit 1 (Q9UBS5 whole entry): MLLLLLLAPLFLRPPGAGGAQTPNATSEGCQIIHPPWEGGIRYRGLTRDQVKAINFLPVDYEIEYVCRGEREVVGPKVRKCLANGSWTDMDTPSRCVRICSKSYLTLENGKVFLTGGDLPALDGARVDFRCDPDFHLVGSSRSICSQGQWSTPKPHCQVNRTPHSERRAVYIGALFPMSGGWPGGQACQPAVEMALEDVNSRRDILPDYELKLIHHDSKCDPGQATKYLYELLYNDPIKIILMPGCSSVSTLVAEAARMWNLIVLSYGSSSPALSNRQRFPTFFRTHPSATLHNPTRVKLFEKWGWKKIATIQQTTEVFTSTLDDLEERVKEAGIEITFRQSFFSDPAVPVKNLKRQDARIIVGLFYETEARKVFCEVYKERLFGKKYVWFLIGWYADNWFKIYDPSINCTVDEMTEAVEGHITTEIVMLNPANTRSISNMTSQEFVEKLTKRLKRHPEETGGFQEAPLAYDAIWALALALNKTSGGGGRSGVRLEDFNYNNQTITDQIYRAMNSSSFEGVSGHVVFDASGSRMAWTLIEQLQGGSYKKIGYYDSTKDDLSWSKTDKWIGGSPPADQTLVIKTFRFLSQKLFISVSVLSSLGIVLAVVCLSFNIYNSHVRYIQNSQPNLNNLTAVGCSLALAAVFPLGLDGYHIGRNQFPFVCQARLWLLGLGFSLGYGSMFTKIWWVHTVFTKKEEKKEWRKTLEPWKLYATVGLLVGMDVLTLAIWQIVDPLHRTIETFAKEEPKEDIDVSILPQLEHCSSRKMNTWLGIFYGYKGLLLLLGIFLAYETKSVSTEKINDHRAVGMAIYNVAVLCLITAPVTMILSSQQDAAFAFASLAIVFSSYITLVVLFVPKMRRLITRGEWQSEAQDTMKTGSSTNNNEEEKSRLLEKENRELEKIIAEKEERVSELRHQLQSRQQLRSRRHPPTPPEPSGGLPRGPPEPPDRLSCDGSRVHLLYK

As for `O=C(Nc1cccc2c(=O)cc(-c3nnn[nH]3)oc12)c1ccc(OCCCCc2ccccc2)cc1`, half-maximal activity in experiment [1] (AC50) was put at 28 µM.
Turning to `CC(/C=C1\SC(=S)N(CC(=O)O)C1=O)=C\c1ccccc1`, the concentration at half-maximal activity (AC50) in [2] is above 30 µM; in experiment [3] it was above 30 µM; in [4], 3.6 µM; in [5] it was above 30 µM.
Regarding `CC1(C)S[C@@H]2[C@H](NC(=O)[C@H](N)c3ccc(O)cc3)C(=O)N2[C@H]1C(=O)O` [AMOXICILLIN], the AC50 in [2] is above 30 µM; in experiment [6], above 10 µM; in experiment [4] it was 15 µM; in experiment [7], above 10 µM; in experiment [8], above 10 µM; in experiment [9], above 30 µM. Besides, the AC50 is above 10 µM in experiment [10] and 4.1 µM in [5].
`O=C1CN2Cc3c(ccc(Cl)c3Cl)N=C2N1` [ANAGRELIDE] returned an AC50 in experiment [9] above 30 µM.
The same measure, in the same setting: the value for `CCc1oc2ccccc2c1C(=O)c1cc(Br)c(O)c(Br)c1` [BENZBROMARONE] was above 10 µM; that for `[H]/N=C(\N/C(=N/[H])NCCCCCCNC(=N)NC(=N)Nc1ccc(Cl)cc1)Nc1ccc(Cl)cc1` [CHLORHEXIDINE] was above 30 µM.
As to `COC(=O)[C@H](c1ccccc1Cl)N1CCc2sccc2C1` [CLOPIDOGREL], the AC50 in experiment [7], in experiment [8] and in experiment [10] was above 10 µM each time.
Consider `CN1C[C@H](C(=O)N[C@]2(C)O[C@@]3(O)[C@@H]4CCCN4C(=O)[C@H](Cc4ccccc4)N3C2=O)C[C@@H]2c3cccc4[nH]cc(c34)C[C@H]21` [DIHYDROERGOTAMINE], for which the AC50 in [11] amounted to 0.0444 µM.
In turn, `CCC(=O)O[C@@H](O[P@](=O)(CCCCc1ccccc1)CC(=O)N1C[C@H](C2CCCCC2)C[C@H]1C(=O)O)C(C)C` [FOSINOPRIL] had an AC50 in experiment [1] above 30 µM.
In the case of `Nc1nc(O)c2ncn(COC(CO)CO)c2n1` [GANCICLOVIR], the AC50 in [3] is above 30 µM.
As for `Cc1cnc(NC(=O)C2=C(O)c3ccccc3S(=O)(=O)N2C)s1` [MELOXICAM], the AC50 in experiment [6], in experiment [7], in [8] and in experiment [10] was above 10 µM each time.
As for `CC[C@@H](CO)NC(=O)[C@@H]1C=C2c3cccc4[nH]cc(c34)C[C@H]2N(C)C1` [METHYLERGONOVINE], in experiment [11], the AC50 was 0.0054 µM.
`CN(C)c1cc(CNCC(C)(C)C)c(O)c2c1C[C@H]1C[C@H]3[C@H](N(C)C)C(O)=C(C(N)=O)C(=O)[C@@]3(O)C(O)=C1C2=O` [OMADACYCLINE]: the AC50 in experiment [1] was above 30 µM.
`CNC[C@H](O)c1cccc(O)c1` [PHENYLEPHRINE] displayed an AC50 in experiment [6] above 10 µM.
Consider `CNC(=O)c1cc(Oc2ccc(NC(=O)Nc3ccc(Cl)c(C(F)(F)F)c3)c(F)c2)ccn1` [REGORAFENIB], for which the AC50 in experiment [1] was 2.37 µM; in [2], above 30 µM; in [4], 24 µM; in experiment [5], above 30 µM.
With `CCOc1cc(CC(=O)N[C@@H](CC(C)C)c2ccccc2N2CCCCC2)ccc1C(=O)O` [REPAGLINIDE], the AC50 in [2] is above 30 µM; in experiment [4] it was 5 µM; in [5] it was above 30 µM.
`CCCN(CCC)CCc1cccc2c1CC(=O)N2` [ROPINIROLE] came in with an AC50 in experiment [11] of 13.4 µM.
In the case of `CC(C)N(CCCCOCC(=O)NS(C)(=O)=O)c1cnc(-c2ccccc2)c(-c2ccccc2)n1` [SELEXIPAG], the AC50 in experiment [3] is above 30 µM.
`CCCCNc1ccc(C(=O)OCCN(C)C)cc1` [TETRACAINE]: the AC50 in experiment [6], in experiment [7], in experiment [8] and in [10] was above 10 µM each time.
As to `CN1CCN(CCCN2c3ccccc3Sc3ccc(S(=O)(=O)N(C)C)cc32)CC1` [THIOPROPERAZINE], in experiment [1], the activity was half-maximal at 3.24 µM (AC50).
In experiment [6], `CC1(C)O[C@@H]2[C@@H](CO[C@@]3(COS(N)(=O)=O)OC(C)(C)O[C@@H]23)O1` [TOPIRAMATE] registered an AC50 above 10 µM.
`Cc1cc(CC(=O)O)n(C)c1C(=O)c1ccc(Cl)cc1` [ZOMEPIRAC] returned an AC50 in [3] above 30 µM.

What is called AC50 is the midpoint of the concentration-response curve, whichever way the signal moves. A higher AC50 goes with weaker potency.
